Measurements from article PMC7495458, “Generating Ampicillin-Level Antimicrobial Peptides with Activity-Aware Generative Adversarial Networks” (ACS Omega, 2020).
In brackets after ≈: the same amount, converted by molar mass. Like-named read-outs stand apart in the source and are kept apart here. No end group written: not given here.

System: E. coli TOP10
Assay: microbe, parasite or virus in culture
Assay type: cell-based
Experimental: The potency of the peptides is evaluated based on MIC against E. coli. MIC is determined as the minimum concentration of an antimicrobial at which the growth of a target microbe is suppressed. […] The high production ratio, 5/6, and the sufficiently low MIC of AMP4 validate PepGAN’s ability to generate industry-level peptides.
The MICs of the peptides were determined using the microdilution test with some modifications. We used E. coli TOP10 (Thermo Scientific, MA, USA) in the late-log phase for this test. The colony forming unit (cfu) of E. coli was determined using optical density at 600 nm. For each peptide, we prepared 11 wells containing 150 μL of 5 × 10^5 cfu/mL of E. coli and the series of concentration of each peptide from 10 to 0.01 μg/mL (2-fold dilution for 10 times). We also prepared one well containing only 150 μL of 5 × 10^5 cfu/mL of E. coli without the peptide. Similarly, we prepared 11 wells for ampicillin in the same well-plate. We incubate the plates for 26 h at 37 °C for the growth of E. coli. To read the optical density for each well, we set the plates in a plate reader (EnSpire 2300, PerkinElmer). After shaking the plate for 10 s at 300 rpm in double-orbital motion (diameter 1 mm), we measured the optical density of each solution (600 nm).

## CC1(C)S[C@@H]2[C@H](NC(=O)[C@H](N)c3ccccc3)C(=O)N2[C@H]1C(=O)O [ampicillin]
Escherichia coli, microdilution test, E. coli TOP10 late-log phase, 5 × 10^5 cfu/mL, 150 μL, 2-fold dilutions, 26 h at 37 °C, optical density 600 nm, read-out: MIC
  MIC: 6.25 µg/mL (≈ 17.9 µM)

## EIEYGNPGVGTDR-NH2 [AMP9NC]
TOP10, 26 h
  MIC: >100 µg/mL

## FLGPIIKTVRAVLCAIKKL-NH2 [AMP6]
TOP10, 26 h
  MIC: 25 µg/mL

## FLPAFKNVISKILKALKKKV-NH2 [AMP5]
TOP10, 26 h
  MIC: 12.5 µg/mL

## GLKKLFSKIKIIGSALKNLA-NH2 [AMP4]
TOP10, 26 h
  MIC: 3.1 µg/mL

## GLRSSVKTLLRGLLGIIKKF-NH2 [AMP3]
TOP10, 26 h
  MIC: >100 µg/mL

## IKALLALPKLAKKIAKKFLK-NH2 [AMP2]
TOP10, 26 h
  MIC: 50 µg/mL

## ILPLLKKFGKKFGKKVWKAL-NH2 [AMP1]
TOP10, 26 h
  MIC: 25 µg/mL

## KRFLPSCVRSIQNLDDALPTPEEF-NH2 [AMP8NC]
TOP10, 26 h
  MIC: >100 µg/mL

## LFTMADPIQSIEKEI-NH2 [AMP7NC]
TOP10, 26 h
  MIC: >100 µg/mL

## TLPEWDDRRVVNS-NH2 [AMP10NC]
TOP10, 26 h
  MIC: >100 µg/mL
